These results are taken from patent publication US20250108036A1, “COMPOSITIONS FOR REMOVING SENESCENT CELLS AND USES THEREOF” (LIFECEUTIX CO., LTD., priority 2021, published 2025).

In general, Kd refers to the equilibrium constant for the complex coming apart.

Data set [1] concerns foreskin cells in which aging was induced by doxorubicin. In words: cell viability of senescent foreskin cells with caspase inhibitor QVD-Oph (Example 10, Table 61). It is filed as cell-based, human. The settings on record: QVD-Oph 20 μM alone; doxorubicin-senescent foreskin cells.
In data set [2] the test system is normally proliferating foreskin cells. In words: survival of normally proliferating foreskin cells treated with medium supernatant (secreted fluid) of compound-killed cells (Example 13, Table 68). It is filed as cell-based, human. The conditions noted are these: after 3 days. As for the experimental part: After treating cells with the test compound at a high concentration that induces the death of most cells in both non-senescence-induced and senescence-induced cells, the cells were washed three times with PBS to remove the test compound, and replaced with fresh medium and cultured for an additional 3 hours at the time when the compound has entered into the cell but has not yet induced cell death (approximately 1 to 3 hours after compound treatment). During this additional culture, by checking with an optical microscope, etc., the medium supernatants containing secreted fluid from normally proliferating and senescent cells in which cell death was induced were obtained. The obtained medium supernatant was replaced with the medium of normally proliferating and senescent cells, respectively, and cell survival rate was measured after 3 days.

In data set [3] the test system is HMGN1. Put plainly: HMGN1 ELISA in culture medium of A549 cancer cells (Example 12, Table 66). The data set is classed as cell-based, human. The conditions noted are these: Homo sapiens, A549, doxorubicin-induced senescent A549 cells, test compound 30 μM, ELISA, DMSO = 100; read-out: HMGN1 (amount of HMGN1 secreted in the cell culture). A general note: In an ELISA, binding on a coated surface is turned into a signal by an enzyme label.

The test system of a further data set is A549. Put plainly: CellTiter-Glo cell viability of senescent A549 cancer cells (Example 12, Table 67). It is filed as cell-based, human. The settings on record: Homo sapiens, A549, doxorubicin-induced senescent A549 cancer cells, CellTiter-Glo, read-out: Survival (%); for viability at 1.1 µM: 1.1 μM test compound.
Data set [4] concerns foreskin cells in which senescence was induced by doxorubicin. Put plainly: CellTiter-Glo cell viability of doxorubicin-induced senescent foreskin cells (Examples 1-2, 10, 11, 13; Tables 4, 63, 65). It is filed as cell-based, human. The settings on record: for cell death, senescent cells: 30 μM, 3 days; for viability at 1.1 µM: 1.1 μM test compound; for viability at 10 µM: 10 μM test compound; for viability at […]: […] test compound.
Procedure: (§1) After 3 days, cell viability was measured using CellTiter-Glo Luminescent Cell Viability Assay (Promega) or light microscopy.

Data set [5] deals with HMGN1. Put plainly: HMGN1 ELISA in culture medium of foreskin cells (Examples 10, 11; Tables 62, 63, 64). The data set is classed as cell-based, human. The settings on record: Homo sapiens, 30 μM test compound, doxorubicin-treated foreskin cells, DMSO = 100; read-out: HMGN1.
The test system of data set [6] is foreskin cells in which senescence was not induced. Put plainly: CellTiter-Glo growth of foreskin cells in which senescence was not induced (Tables 5, 12). The conditions noted are these: 30 μM, 3 days. A general note: In ATP-based viability assays light output follows the ATP content of the culture.
Procedure: as §1
The subject of a further data set is senescent foreskin cells. Put plainly: survival of senescent foreskin cells treated with medium supernatant (secreted fluid) of compound-killed cells (Example 13, Tables 68, 69). The data set is classed as cell-based, human. The settings on record: supernatant-treated cells: senescent cells, after 3 days.
The conditions of data set [7]: read-out: MST Kd; cited from earlier work.
A further data set deals with p16, MMP3, IL6. In words: p16, MMP3, IL6 mRNA qRT-PCR in groin fat of obese mice given senescent cells killed by test compounds (Example 16, Table 72). The data set is classed as in vivo, C57BL6J mice. The settings on record: obese mice administered senescent cells whose death was induced by the test compound. From the text:
To obtain preadipocytes, groin fat tissue was collected from an 8-week-old female C57BL6J mouse (purchased from KRIBB Laboratory Animal Resource Center). The fat tissue was cut into small pieces and treated with collagenase to decompose the fat tissue, then centrifuged to collect the stromal vascular fraction (SVF) containing preadipocytes. It was washed with a washing medium (HBSS, purchased from GenDEPOT; 3.5% Albumin Fraction V, purchased from GenDEPOT; 100 U/ml Penicillin & Streptomycin, purchased from Invitrogen), mixed again, and extracted by filtering through a 100 μm nylon mesh. The isolated preadipocytes were cultured in the designated medium (DMEM, purchased from GenDEPOT; 20% FBS, purchased from GenDEPOT; 100 U/ml Penicillin & Streptomycin, purchased from Invitrogen). In the same manner as Example 1, cells were treated with doxorubicin at a concentration of 250 nM for 24 hours and cultured for an additional 21 days to induce cell senescence. Cells were treated with doxorubicin at a concentration of 250 nM for 24 hours and cultured for an additional 21 days to induce cell senescence. By treating the test compounds in the same manner as in Example 13, it was confirmed using an optical microscope that the death of most senescent cells was induced. The killed preadipocytes were washed using PBS (purchased from Welgene) and then mixed with PBS at a concentration of 5×10^5 cells/200 μl. It was administered subcutaneously to 8-week-old female C57BL6J mice (purchased from KRIBB Laboratory Animal Resource Center). At 7 and 10 days after administration of the killed senescent cells, 2 million senescent preadipocytes were mixed in 200 μl of PBS and administered into the abdominal cavity of mice. After administration of killed senescent cells, obesity was induced in mice with a high-fat diet (DIO) for 8 weeks in the same manner as in Example 9-1. Afterwards, the mouse was sacrificed in the same manner as in Example 7-2, total RNA was extracted from the groin fat tissue, and qRT-PCR was performed and analyzed using the synthesized cDNA. […] The mRNA amount of p16, MMP3, and IL6 without administration of senescent cells whose death was induced by the test compounds was calculated as 100%, and the amount of p16, MMP3, and IL6 after administration of the senescent cells whose death was induced by the test compounds was compared with them. Furthermore, an open field test was performed to analyze aging-related frailty in mice using the same method as Example 7-7. […] The amount of activity evaluation without administration of senescent cells whose death was induced by the test compounds was calculated as 100% and compared it with the amount of activity evaluation after administration of senescent cells whose death was induced by the test compounds. […]
(In general: Real-time PCR tracks product formation cycle by cycle.)

Data set [8] is described as follows: open field test in obese mice given senescent cells killed by test compounds (Example 16, Table 72). The data set is classed as in vivo, C57BL6J mice. The conditions noted are these: obese mice administered senescent cells whose death was induced by the test compound. From the text:
To obtain preadipocytes, groin fat tissue was collected from an 8-week-old female C57BL6J mouse (purchased from KRIBB Laboratory Animal Resource Center). The fat tissue was cut into small pieces and treated with collagenase to decompose the fat tissue, then centrifuged to collect the stromal vascular fraction (SVF) containing preadipocytes. It was washed with a washing medium (HBSS, purchased from GenDEPOT; 3.5% Albumin Fraction V, purchased from GenDEPOT; 100 U/ml Penicillin & Streptomycin, purchased from Invitrogen), mixed again, and extracted by filtering through a 100 μm nylon mesh. The isolated preadipocytes were cultured in the designated medium (DMEM, purchased from GenDEPOT; 20% FBS, purchased from GenDEPOT; 100 U/ml Penicillin & Streptomycin, purchased from Invitrogen). In the same manner as Example 1, cells were treated with doxorubicin at a concentration of 250 nM for 24 hours and cultured for an additional 21 days to induce cell senescence. Cells were treated with doxorubicin at a concentration of 250 nM for 24 hours and cultured for an additional 21 days to induce cell senescence. By treating the test compounds in the same manner as in Example 13, it was confirmed using an optical microscope that the death of most senescent cells was induced. The killed preadipocytes were washed using PBS (purchased from Welgene) and then mixed with PBS at a concentration of 5×10^5 cells/200 μl. It was administered subcutaneously to 8-week-old female C57BL6J mice (purchased from KRIBB Laboratory Animal Resource Center). At 7 and 10 days after administration of the killed senescent cells, 2 million senescent preadipocytes were mixed in 200 μl of PBS and administered into the abdominal cavity of mice. After administration of killed senescent cells, obesity was induced in mice with a high-fat diet (DIO) for 8 weeks in the same manner as in Example 9-1. Afterwards, the mouse was sacrificed in the same manner as in Example 7-2, total RNA was extracted from the groin fat tissue, and qRT-PCR was performed and analyzed using the synthesized cDNA. […] The mRNA amount of p16, MMP3, and IL6 without administration of senescent cells whose death was induced by the test compounds was calculated as 100%, and the amount of p16, MMP3, and IL6 after administration of the senescent cells whose death was induced by the test compounds was compared with them. Furthermore, an open field test was performed to analyze aging-related frailty in mice using the same method as Example 7-7. […] The amount of activity evaluation without administration of senescent cells whose death was induced by the test compounds was calculated as 100% and compared it with the amount of activity evaluation after administration of senescent cells whose death was induced by the test compounds.

Setting [9] is: supernatant from compound-treated medium without cells (No Cells).
[10] abbreviates: supernatant from death-induced proliferating foreskin cells (compound 30 μM).
[11] abbreviates: supernatant from death-induced senescent foreskin cells (compound 30 μM).
The mark [12] stands for this setting: Homo sapiens, 72 h, doxorubicin-induced senescent foreskin cells, CellTiter-Glo, 0 μM = 100, read-out: Survival (%).

Regarding `CC(C)[C@H](NC(=O)c1ccc2ccccc2n1)C(=O)N[C@@H](CC(=O)O)C(=O)COc1c(F)cccc1F` [QVD], in [1], the “Survial (%)” value is given as 105.1 (±4.7) %.
`Cc1onc(C(=O)N2CCN(C(c3ccc(Cl)cc3)c3ccc(Cl)cc3)CC2)c1N(O)O` [LX-401]: the “Survival (%)” value was 97.9 (±7.2) % in [2] (setting [9]); 88.1 (±4.2) % in data set [2] (setting [10]); 95.1 (±5.7) % in [2] (setting [11]); 101.1 (±5.5) % in the data set on senescent foreskin cells (setting [9]); 48.2 (±4.2) % with senescent foreskin cells (setting [10]); 42.2 (±4)^ % in the data set with senescent foreskin cells (setting [11]). For the same molecule, the activity at 30 µM was found to be 277% in the data set with HMGN1 [3] and 263% with HMGN1 [5]. For the same molecule, the values for the viability at 1.1 µM (with A549; in data set [4] (setting [12])) were 89.7% and 20.4%, respectively. In addition, the values for the viability at 10 µM (in the data set on A549 (10 μM test compound); in [4] (setting [12])) were 42.1% and 10.6%, respectively. Also, the viability at 30 µM in the data set on A549 (30 μM test compound) was determined as 16.8%; in data set [4] (Homo sapiens, 72 h, 30 μM test compound, doxorubicin-induced senescent foreskin cells, CellTiter-Glo, 0 μM = 100, read-out: Survival (%)), 7.8%. Moreover, in [4], the “cell death, senescent cells” value was “induced the death of most cells”. In data set [4] (setting [12]), the viability at […] stood at 12.4%. The “cell death, normally proliferating cells” value in data set [6] was “induced the death of most cells”.
As for `CC(C)(C)OC(=O)C(N1C(=O)c2ccccc2C1=O)C(C)(C)C` (stereo not drawn) [QW-034], in data set [7], the dissociation constant Kd is 0.979 µM.
With `CC(C)(C)OC(=O)CCN1C(=O)c2ccccc2C1=O` [QW-011], the equilibrium dissociation constant (Kd) in data set [7] was 0.926 µM.
Take `CC(C)(C)OC(=O)CCCN1C(=O)c2ccccc2C1=O` [LX-407]: the activity at 30 µM was 339% in the data set with HMGN1 [3] and 299% with HMGN1 [5]. The viability at 1.1 µM came out at 29.4% with A549 and 15.9% in data set [4] (setting [12]). In addition, the Kd in [7] was 0.399 µM.
For the molecule `COc1ccc(N(C(=O)CCl)C(C(=O)NCCc2ccccc2)c2cccs2)cc1Cl` (stereo not drawn) [LX-402], the “Survival (%)” value is listed as 97.1 (±5.9) % in data set [2] (setting [9]); 78.1 (±3.8) % in data set [2] (setting [10]); 101.1 (±2.2) % in data set [2] (setting [11]); 98 (±3.6) % in the data set with senescent foreskin cells (setting [9]); 31 (±1.2) % in the data set with senescent foreskin cells (setting [10]); 48.3 (±2.1) % in the data set on senescent foreskin cells (setting [11]). The values for the activity at 30 µM in the data set on HMGN1 [3] and with HMGN1 [5] were 340% and 298%, respectively. Further, the values for the viability at 1.1 µM (with A549; in data set [4] (setting [12])) were 71.6% and 67.2%, respectively. Also, the “cell death, senescent cells” value in data set [4] was “induced the death of most cells”. Besides, in [4] (setting [12]), the viability at 10 µM amounted to 4.5%. In data set [4] (setting [12]), the viability at […] was determined as 27%. Besides, in data set [6], the “cell death, normally proliferating cells” value is listed as “induced the death of most cells”.
`CC(C(=O)OC(C)(C)C)N1C(=O)c2ccccc2C1=O` (stereo not drawn) [QW-023]: the Kd in data set [7] was 1.78 µM.
Consider `CCC(C)C(C(=O)OC(C)(C)C)N1C(=O)c2ccccc2C1=O` (stereo not drawn) [QW-050], for which the Kd in [7] was 2.43 µM.
Regarding `CC(C)(C)OC(=O)C(C)(C)N1C(=O)c2ccccc2C1=O` [QW-020], in data set [7], the Kd was 2.14 µM.
In the case of `CC(C)(C)OC(=O)CCCCCN1C(=O)c2ccccc2C1=O` [QW-029], the dissociation constant (Kd) in data set [7] was 2.1 µM.
As for `CCOc1ccccc1-n1c(CN2CCNCC2)nc2ccccc2c1=O` [LX-1002], in the data set on p16, MMP3, IL6, the “IL6 mRNA (%)” value is recorded as 74.4 (±8.5) %. In the data set with p16, MMP3, IL6, the “MMP3 mRNA (%)” value is on record as 68.1 (±13.8) %. Also, in the data set with p16, MMP3, IL6, the “p16 mRNA (%)” value is on record as 77.4 (±8.6) %. Besides, the figures for the activity at 30 µM in the data set with HMGN1 [3] and with HMGN1 [5] were 296% and 286%, respectively. Moreover, the “Open Field Test Time in Center (%)” value in data set [8] is 141.1 (±18.3) %. Besides, the viability at 1.1 µM with A549 is 47.6%; in [4] (setting [12]), 4.2%.
